In ChEMBL document CHEMBL3507680, “University of Dundee, Gates Library screen for HepG2 cell viability”:

Assay: Human HepG2 cell viability assay in 384 well format
Format: toxicity, cell-based
Set-up: dose 125 nL, time 70.5 hour; cytotoxicity at 70.5 h: concentration not given beside the values
Settings: HepG2 cells, read-out: Inhibition

Structure (SMILES) | cytotoxicity at 70.5 h
Cn1cc(NC(=O)Nc2ccccn2)cc(Cl)c1=O | 9.47%
Cc1ccc(CN(C)C(=O)CN2CCOC(Cn3cccn3)C2)o1 (stereo not drawn) | -3.39%
Cc1cnn(C2CN(CC(=O)N(C)Cc3ccc(C)o3)C2)c1 | 39.8%
CC(C)(Oc1ccc2c(c1)CCCC2=O)C(=O)NCc1ccco1 | -2.8%
CCn1cnc(NC(=O)NCC2CCS(=O)(=O)CC2)n1 | -19.4%
COc1cc(CCC(=O)N2CCC(c3cc4nccnc4[nH]3)CC2)on1 | 28.5%
Cc1csc(CN2CC[C@H]3C[C@@H](c4nnc(C)[nH]4)O[C@@H]3C2)n1 | 0.739%
c1cnc(N2CCO[C@H]3[C@H](OCCN4CCOCC4)CC[C@@H]32)nc1 | -2.53%
NS(=O)(=O)c1cc(C(=O)N2CCCC(n3ccnc3)C2)cs1 (stereo not drawn) | -3.09%
C[C@H]1CN(C(=O)c2ccc[nH]2)C[C@@]12CCN(c1ccsc1)C2=O | -5.02%
Cc1c(Cl)c(CN2CCCC2Cn2cncn2)nc2ccccc12 (stereo not drawn) | -6.2%
CSc1ccc(-c2nc(CN3CCC(NC(C)=O)CC3)c(C)o2)cc1 | -7.12%
CCN(C(=O)C1CC1)C(c1cccnc1)c1ccc2c(c1)CCO2 (stereo not drawn) | -5.96%
CC(C)c1noc(-c2ccc(NCCCC3CCOC3)nc2)n1 (stereo not drawn) | -0.0541%
O=C1CO[C@H]2CN(C3CCOCC3)C[C@H]2N1Cc1ccccn1 | 1.72%
Cc1noc(C)c1CCC(=O)NCC1(O)CCCN(c2ccccn2)C1 (stereo not drawn) | -5.72%
Cc1nn(C)cc1C(=O)NCc1csc(C2CC2)n1 | 18.9%
OCCn1cc(CN2CCN(CCOCC(F)(F)F)CC2)cn1 | 6.14%
CC(C)C(C)NC(=O)Nc1ccc(CS(C)(=O)=O)cc1 (stereo not drawn) | -8.12%
COc1ncccc1C1CC(=O)NCc2nc3sccn3c21 (stereo not drawn) | -12.8%
COCCN1CCO[C@H]2CN(C(=O)c3ccncc3F)C[C@H]21 | -9.68%

Structure (SMILES) | cytotoxicity at 70.5 h
Cn1cc(S(=O)(=O)NCc2ccsc2)cn1 | 13.8%
CC(Oc1ccccc1C(F)(F)F)C(=O)NS(=O)(=O)C(C)C (stereo not drawn) | 1.98%
Cc1nnc(CN(C)C(=O)C(CC(C)C)N2CCCCC2=O)n1C (stereo not drawn) | -5.01%
COCCCN1CCC(NC(=O)C(C)C)CC1 | 7.82%
COC[C@@]12CCO[C@@H]1CCN(C(=O)Cc1cccc(F)c1)C2 | 2.86%
CN(Cc1cccnc1)CC1CC12CCCC2 (stereo not drawn) | -5.63%
CC(C)N(CC(N)=O)CC(=O)N(C1=CCCCC1)C1CC1 | 3.33%
CC(C)Cc1nc(OCC(=O)O)c(C#N)c2c1CCCC2 | -7.68%
CCc1noc(C(C)N(C)Cc2ccc(OC)c(OC)c2)n1 (stereo not drawn) | 1.83%
CSc1nsc(SCC(=O)c2cc3c(cc2Cl)NC(=O)C3)n1 | -29.3%
CCc1nn(C)c(Cl)c1CN1CCC(Cc2nncn2C)CC1 | -3.75%
Cc1ccc2c(C)c(C(=O)NCc3csc(N)n3)oc2c1 | -13%
Cc1nccn1CCC1CCCCN1C(=O)c1ccc(N(C)C)cc1 (stereo not drawn) | -3.37%
CC(C)C(CNC(=O)NCc1cc[nH]n1)N1CCOCC1 (stereo not drawn) | -5.25%
O=C(C1CCC1)N1CCN(Cc2ccccc2F)[C@H]2CS(=O)(=O)C[C@H]21 | -4.65%
Cc1ccc(N2CCCN(C(=O)CCc3nccs3)CC2)nn1 | -8.06%
O=C(CNCC1CCCN1c1cccnn1)NCCc1cccs1 (stereo not drawn) | -1.9%
CCOC(=O)C1CSCCN1C(=O)c1ccc(-n2nc(C)cc2C)cc1 (stereo not drawn) | 3.47%
CC(Cn1cccn1)NCC(=O)NC1CCOCC1 (stereo not drawn) | 6.94%
Cc1cc(C(=O)NCc2ccco2)nn1C | -11.3%
COCCn1nc(C(=O)N2CCCC2c2cccc(F)c2)ccc1=O (stereo not drawn) | -8.14%

Structure (SMILES) | cytotoxicity at 70.5 h
Cc1ccc(C(C)NC(=O)CNCCn2cccn2)cc1C (stereo not drawn) | -10.7%
CC(=O)NCC(=O)N1CCC2(CC1)NC(=O)CC2c1cccnc1 (stereo not drawn) | -1.28%
O=C(c1cccc(-c2ncc[nH]2)c1)N1CCC(N2CCCC(O)C2)CC1 (stereo not drawn) | 4.83%
NC(=O)[C@@H]1Cc2ccccc2CN1CCc1cccs1 | -10%
Fc1cnc(N2CCCC3(CCN(c4ncccn4)C3)C2)nc1 (stereo not drawn) | 13.7%
COc1cccc(S(=O)(=O)Cc2noc(CC(C)C)n2)c1 | -4.78%
CC(C)Oc1ncnc2c1CCN(Cc1ccco1)CC2 | -2.84%
CCN(Cc1ccccc1Cl)Cn1nc(C)c2c(C)onc2c1=O | -6.62%
CCc1nc(C)c(C(=O)NCC2COc3cc(OC)ccc3C2)o1 (stereo not drawn) | 42.6%
CCn1ncc2c1NC(=O)CC2c1cnc(-c2ccccn2)nc1 (stereo not drawn) | -2.85%
Cc1cc(C)n(-c2ccc(N3CCC4(CC3)OCC(C)O4)nc2)n1 (stereo not drawn) | -8.82%
O=C(Nc1ccccc1C(=O)NCCN1CCOCC1)c1ccco1 | 24.9%
CC(C)OCc1ncn2c1CN(Cc1nccs1)CCC2 | -6.03%
O=C(NCCNc1ncccn1)N1CCCC1c1ccncc1 (stereo not drawn) | 1.65%
Nc1ccnc(-c2cc(NC3CCNCC3)nc3[nH]ccc23)c1 | -3.27%
COc1cc(C(=O)N(Cc2cnn(C)c2)C(C)C)ccc1OC(C)C | 3.17%
CC(=O)c1cc2c(=O)[nH]c(=O)n(C)c2nc1C | -9.65%
CC(=O)N1CCC(Cc2cccc(-c3c(C)noc3C)n2)C1 (stereo not drawn) | -7.61%
COCCN(Cc1sccc1C)Cc1nccn1CCOC | -4.3%
CCC(C)(CNC(=O)Nc1nncs1)N1CCOCC1 (stereo not drawn) | -13.4%
CNCc1cnc(Nc2ccccc2)nc1 | -5.59%

Structure (SMILES) | cytotoxicity at 70.5 h
CN(C)S(=O)(=O)N1CCC2(CC1)CC(Oc1ccccn1)CO2 (stereo not drawn) | 0.296%
Cc1c(C(=O)N2CCC(c3nc(C)n4ccsc34)CC2)cnn1C | -4.61%
Cc1nc(C)c(C(=O)NCCNc2cc(N3CCCC3)ncn2)s1 | 9.32%
CCOCC(=O)N1CCCn2c(nnc2Cn2cccc2)C1 | 3.11%
CC(C)Oc1ncccc1CNC(=O)NC(C)c1cccs1 (stereo not drawn) | -21%
CCCc1noc(-c2cn(CC(=O)N(CC)CC)nn2)n1 | -4.55%
CN(C)c1ccc(-c2cc(C(=O)O)cc(S(=O)(=O)NC3CC3)c2)cc1 | -12.9%
N#Cc1cccnc1N1CCC2(CCCN(C3CCOCC3)C2=O)C1 (stereo not drawn) | -3.03%
CCC(=O)NCC(=O)N(C)C(c1ccc(Cl)cc1)c1cccnc1 (stereo not drawn) | -1.51%
COCCn1cc(NCc2c[nH]nc2-c2ccc(OC)cc2)cn1 | -5.02%
NC1CCCCN(Cc2ccccc2CS(=O)(=O)c2ccccc2)C1 (stereo not drawn) | -8.29%
Cc1cc(C)c(CNC(=O)N2CCC(N3CCCC3)CC2)c(=O)[nH]1 | -7.61%
Cc1ccc(C(=O)N2CCN(CC(C)O)CC2)cc1S(C)(=O)=O (stereo not drawn) | -6.11%
c1cncc(Cc2nnc3n2CCN(CC2CCCNC2)CC3)c1 (stereo not drawn) | -14%
CCCc1noc(CNc2cc(C[S+](C)[O-])ccc2Cl)n1 (stereo not drawn) | -3.29%
O=C1CCC2(CCN(Cc3cc(F)ccc3Cl)CC2)CN1C1CCCC1 | 3.22%
Cc1ccccc1Cc1nc(CSc2nnc(N)n2C)no1 | -17.8%
CCOC(=O)CNC(=O)NCc1cccn1Cc1ccccc1C | -17.6%
CCN(c1ccc(C(=O)N2CCC(C)CC2)cc1)S(=O)(=O)CC | 2.02%
Cc1ncc(CN2CCOC(CN(C)c3cccnn3)C2)s1 (stereo not drawn) | -9.59%
